Assay results taken from US20200077655A1, “Use of an Acyclic Picolinamide Compound as a Fungicide for Control of Phytopathogenic Fungi in Orchard, Vineyard and Plantation Crops” (Dow AgroSciences LLC, priority 2017, published 2020).

How the values were obtained:
Format in all cases: in vivo
[1] = system: Stigmina carpophila (STIGCA); experiment: Field assessment of shot hole in almond, leaf and nut incidence; details: for Leaf Incidence of STIGCA 121 DAAA: untreated 3.1; for Nut Incidence of STIGCA 121 DAAA: untreated 6.3
Excerpt: A fungicidal treatment containing Compound I, applied in an SC formulation (MSO built-in) and tank mixed with an adjuvant (Adsee C80W 80%), was sprayed on almond trees (PRNDU, Butte variety), 2 applications, […] The experimental plots were run under natural infestation. The treatment was part of an experimental trial designed as a randomized complete block (RCB) with three replications and a plot of approximately 16×22 ft. Compound I was applied at water volume of 100 gal/acre, using a motorized backpack sprayer (Orifice nozzle 2.3 setting).
Leaf incidence (number of visual diseased leaves per 20 leaves per tree on the whole plot) was assessed 121 days after application A (121 DAAA).
Nut incidence (number of visual diseased nuts per 10 nuts per tree on the whole plot) was assessed 121 days after application A (121 DAAA).

[2] = system: Monilinia fructicola (MONIFC); experiment: Field assessment on brown rot of fruits on nectarines, harvest and shelf life simulation; details: curative; for Percent control based on fruit incidence vs untreated, Harvest: 8 DAAB
Excerpt: A fungicidal treatment containing Compound I, applied in a 5% EC formulation and tank mixed with an adjuvant (Trycol, 50% w/w at 0.2% v/v), was sprayed twice during fruit ripening on the plant canopy of nectarines (PRNPN, Calfornia variety) at rates of 50, 100, and 150 grams of active ingredient per hectare (g ai/ha). The applications were done at 8 day intervals with disease inoculation 12 days before the first application (curative). The treatment was part of an experimental trial designed as a randomized complete block with four replications and a plot of approximately 4.3×6.0 m, with compound I being applied using a MISTBLOW, Solo backpack applicator at a water volume of 800 L/ha.
The pathogen was certified to be Monilinia fructicola (MONIFC) by means of an immunoassay followed by a PCR assay on material collected (mummies) from the trial. The brown rot disease at harvest was evaluated on 100 randomly picked fruits per plot, 8 days after application B (8 DAAB), calculating the incidence of fruit with disease and then the percent control using Abbotts. Visually healthy samples of 60 fruits per plot were then placed in alveolus plates and kept for 5 days in cold storage. The samples were then maintained for […] at about 20° C. (shelf life period). Several assessments were made to check the development of disease during the shelf life simulation. In particular, the percentage of rotten fruits were checked at the exit from cold storage (after 5 days of refrigeration, 13 DAAB) followed by 15, 17, 20 and 23 DAAB. Percent of fruit with disease was calculated (incidence) amd then percent control was calculated using Abbotts.

[3] = system: Stigmina carpophila (STIGCA); experiment: Field assessment of two trials for shot hole in almond (AUDPC); details: almond leaf incidence
Excerpt: A fungicidal treatment containing Compound I, applied in an SC formulation (MSO built-in) and tank mixed with an adjuvant (Agnique BP-420, 50% w/w at 0.2% v/v or Adsee C80W 80%), was sprayed on almond trees (PRNDU, Winters or Carmel varieties) at growth stage BBCH71 and 72 at rates of 60, 120, 150, and 180 g ai/ha in two trials. The experimental plots were run with natural infestation. The treatments were part of experimental trials designed as a randomized complete block (RCB) with three replications and a plot of approximately 14×20 ft, both trials. Compound I was applied at water volume of 100 gal/acre, using a Mistblower sprayer (Orifice nozzle 0.125 setting), both trials.
Percent Leaf incidence (calculated from the number of visual diseased leaves per 30 (Winters) or 50 (Carmel) leaves per tree on whole plot) was assessed three or four times during the trial. Area under the disease progress curve (AUDPC) was calculated for each plot using the sets of recorded leaf incidence data. Relative percent control was calculated from the AUDPC as percent of the untreated control using Abbotts.

[4] = system: Venturia pyrina (VENTPI); experiment: Field assessment of pear scab; details: pears, 15 days after final application
Excerpt: A 10% SC formulation of Compound I was tank mixed with three different adjuvants: Agnique BP420 (50% w/w at 0.3% v/v), Ethomeen T18H (50% w/w at 0.15% v/v) and Trycol (50% w/w at 0.3% v/v). Formulations of compound I were sprayed on the plant canopy of pear trees (Highland variety) of approximately 2.5 m in height at rates of 100, 150 and 200 grams of active ingredient per hectare (g ai/ha). The trial was based on six foliar applications during the growing season at approximately 12 day intervals with natural pear scab and sooty mold infections in open field conditions. The treatment was part of an experimental trial designed as a randomized complete block with four replications and a plot of approximately 3×5 m. Formulations of compound I were applied with a SOLO mistblower sprayer at a water volume of 1500 L/ha.
For VENTPI evaluation, percent control was calculated based on incidence and severity in fruit assessment vs the nontreated control on a random selection of 50 fruits per plot. For CAPDSP assessment, percent control was calculated from percent leaf severity using Abbotts and the nontreated control. Percent control for both diseases was calculated at 11DAAE, 7DAAF and 15DAAF.

[5] = 120 g ai/ha, Adsee C80W, 300 g ai/ha
[6] = 100 g ai/ha, adjuvant Agnique BP420 (first such line, r11)
[7] = 100 g ai/ha, adjuvant Agnique BP420 (second such line, r13)
[8] = 200 g ai/ha, adjuvant Agnique BP420

COc1ccnc(C(=O)N[C@@H](C)C(=O)O[C@@H](C)C(c2ccc(F)cc2)c2ccc(F)cc2)c1OC(C)=O [Compound I, (S)-1,1-bis(4-fluorophenyl)propan-2-yl (3-acetoxy-4-methoxypicolinoyl)-L-alaninate]
Leaf Incidence of STIGCA 121 DAAA ([1]; 60 g ai/ha, MSO, 120 g ai/ha): 3.0 Number of Leaves per 20 Leaves | Nut Incidence of STIGCA 121 DAAA ([1]; 60 g ai/ha, MSO, 120 g ai/ha): 5.6 Number of Nuts per 10 Nuts | Leaf Incidence of STIGCA 121 DAAA [1, 5]: 1.4 Number of Leaves per 20 Leaves | Nut Incidence of STIGCA 121 DAAA [1, 5]: 2.5 Number of Nuts per 10 Nuts | Leaf Incidence of STIGCA 121 DAAA ([1]; 120 g ai/ha, MSO, 240 g ai/ha): 2.2 Number of Leaves per 20 Leaves | Nut Incidence of STIGCA 121 DAAA ([1]; 120 g ai/ha, MSO, 240 g ai/ha): 6.0 Number of Nuts per 10 Nuts | Leaf Incidence of STIGCA 121 DAAA ([1]; 150 g ai/ha, MSO, 300 g ai/ha): 1.7 Number of Leaves per 20 Leaves | Nut Incidence of STIGCA 121 DAAA ([1]; 150 g ai/ha, MSO, 300 g ai/ha): 4.4 Number of Nuts per 10 Nuts | Leaf Incidence of STIGCA 121 DAAA ([1]; 180 g ai/ha, MSO, 360 g ai/ha): 1.9 Number of Leaves per 20 Leaves | Nut Incidence of STIGCA 121 DAAA ([1]; 180 g ai/ha, MSO, 360 g ai/ha): 4.4 Number of Nuts per 10 Nuts | Percent control based on fruit incidence vs untreated, Shelf Life Simulation ([2]; 50 g ai/ha): C (26-50) | Percent control based on fruit incidence vs untreated, Harvest ([2]; 50 g ai/ha): B (51-75) | Percent control based on fruit incidence vs untreated, Shelf Life Simulation ([2]; 100 g ai/ha): C (26-50) | Percent control based on fruit incidence vs untreated, Harvest ([2]; 100 g ai/ha): B (51-75) | Percent control based on fruit incidence vs untreated, Shelf Life Simulation ([2]; 150 g ai/ha): B (51-75) | Percent control based on fruit incidence vs untreated, Harvest ([2]; 150 g ai/ha): B (51-75) | Calculated Percent Control (AUDPC) of STIGCA ([3]; 60 g ai/ha, Agnique BP420, 240 mL/ha): 45.2% | Calculated Percent Control (AUDPC) of STIGCA ([3]; 60 g ai/ha, MSO, 120 g ai/ha): 47.9% | Calculated Percent Control (AUDPC) of STIGCA [3, 5]: 44.6% | Calculated Percent Control (AUDPC) of STIGCA ([3]; 120 g ai/ha, Agnique BP420, 480 mL/ha): 49% | Calculated Percent Control (AUDPC) of STIGCA ([3]; 120 g ai/ha, MSO, 240 g ai/ha): 48.3% | Calculated Percent Control (AUDPC) of STIGCA ([3]; 150 g ai/ha, Agnique BP420, 600 mL/ha): 41.1% | Calculated Percent Control (AUDPC) of STIGCA ([3]; 150 g ai/ha, MSO, 300 g ai/ha): 45.1% | Calculated Percent Control (AUDPC) of STIGCA ([3]; 180 g ai/ha, Agnique BP420, 720 mL/ha): 30.1% | Calculated Percent Control (AUDPC) of STIGCA ([3]; 180 g ai/ha, MSO, 360 g ai/ha): 49.0% | Percent control VENTPI, incidence in fruit assessment [4, 6]: B (51-75) | Percent control VENTPI, severity in fruit assessment [4, 6]: B (51-75) | Percent control VENTPI, incidence in fruit assessment [4, 7]: B (51-75) | Percent control VENTPI, severity in fruit assessment [4, 7]: A (76-100) | Percent control VENTPI, incidence in fruit assessment ([4]; 100 g ai/ha, adjuvant ETHOMEEN): C (26-50) | Percent control VENTPI, severity in fruit assessment ([4]; 100 g ai/ha, adjuvant ETHOMEEN): B (51-75) | Percent control VENTPI, incidence in fruit assessment ([4]; 100 g ai/ha, adjuvant None): C (26-50) | Percent control VENTPI, severity in fruit assessment ([4]; 100 g ai/ha, adjuvant None): B (51-75) | Percent control VENTPI, incidence in fruit assessment ([4]; 100 g ai/ha, adjuvant Trycol): B (51-75) | Percent control VENTPI, severity in fruit assessment ([4]; 100 g ai/ha, adjuvant Trycol): B (51-75) | Percent control VENTPI, incidence in fruit assessment [4, 8]: B (51-75) | Percent control VENTPI, severity in fruit assessment [4, 8]: B (51-75)
